{"source": "patent US20250074920A1", "about": "“MACROCYCLIC COMPOUNDS AND USE AS KINASE INHIBITORS” (BLOSSOMHILL THERAPEUTICS, INC., priority 2022, published 2025)", "assay_in_all_cases": "KINOMEscan kinase binding assay", "key": {"RET(V804L)": {"test_system": "RET(V804L)", "settings": "at 1 μM", "how_it_was_run": "(§1)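 Dissociation constants came from the amount of kinase captured on the solid support across a test compound concentration series. Captured kinase, T7 phage-fused or HEK-293-made and DNA-tagged, was read by qPCR after a 1 h room-temperature binding step.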"}, "INSR": {"test_system": "INSR", "settings": "at 1 μM", "how_it_was_run": "as §1"}, "RET": {"test_system": "RET", "settings": "at 1 μM", "how_it_was_run": "as §1"}, "KIT(D816H)": {"test_system": "KIT(D816H)", "settings": "at 1 μM", "how_it_was_run": "as §1"}, "ALK": {"test_system": "ALK", "settings": "at 1 μM", "how_it_was_run": "as §1"}, "EPHA5": {"test_system": "EPHA5", "settings": "at 1 μM", "how_it_was_run": "(§2)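 Steps: biotinylated ligand loaded onto streptavidin beads (30 min RT), then biotin-blocked; kinase, beads and compound combined in SeaBlock/PBS/Tween/DTT buffer for 1 h RT; beads washed; kinase eluted with 0.5 μM non-biotinylated ligand; eluate quantified by qPCR.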"}, "PDGFRA": {"test_system": "PDGFRA", "settings": "at 1 μM", "how_it_was_run": "as §1"}, "[1]": {"test_system": "ABL1(M351T)-phosphorylated", "settings": "at 1 μM", "how_it_was_run": "as §1"}, "[2]": {"test_system": "ABL1(F317I)-nonphosphorylated", "settings": "at 1 μM", "how_it_was_run": "as §1"}, "ALK(L1196M)": {"test_system": "ALK(L1196M)", "settings": "at 1 μM", "how_it_was_run": "as §1"}, "KIT(L576P)": {"test_system": "KIT(L576P)", "settings": "at 1 μM", "how_it_was_run": "as §1"}, "CSF1R": {"test_system": "CSF1R", "settings": "at 1 μM", "how_it_was_run": "as §1"}, "KIT(V559D, T670I)": {"test_system": "KIT(V559D, T670I)", "settings": "at 1 μM", "how_it_was_run": "as §1"}, "[3]": {"test_system": "ABL1(T315I)-nonphosphorylated", "settings": "at 1 μM", "how_it_was_run": "as §1"}, "[4]": {"test_system": "ABL1(H396P)-phosphorylated", "settings": "at 1 μM", "how_it_was_run": "as §1"}, "[5]": {"test_system": "ABL1(E255K)-phosphorylated", "settings": "at 1 μM", "how_it_was_run": "as §1"}, "TRKA": {"test_system": "TRKA", "settings": "at 1 μM", "how_it_was_run": "as §1"}, "FLT3(D835H)": {"test_system": "FLT3(D835H)", "settings": "at 1 μM", "how_it_was_run": "as §1"}, "PDGFRB": {"test_system": "PDGFRB", "settings": "at 1 μM", "how_it_was_run": "as §1"}, "PYK2": {"test_system": "PYK2", "settings": "at 1 μM", "how_it_was_run": "as §1"}, "[6]": {"test_system": "JAK3(JH1domain-catalytic)", "how_it_was_run": "as §2"}, "EPHB3": {"test_system": "EPHB3", "settings": "at 1 μM", "how_it_was_run": "as §1"}, "CSK": {"test_system": "CSK", "settings": "at 1 μM", "how_it_was_run": "as §1"}, "EPHB1": {"test_system": "EPHB1", "settings": "at 1 μM", "how_it_was_run": "as §1"}, "TNK1": {"test_system": "TNK1", "settings": "at 1 μM", "how_it_was_run": "as §1"}, "EPHA3": {"test_system": "EPHA3", "settings": "at 1 μM", "how_it_was_run": "as §2"}, "ERBB3": {"test_system": "ERBB3", "settings": "at 1 μM", "how_it_was_run": "as §1"}, "FYN": {"test_system": "FYN", "settings": "at 1 μM", "how_it_was_run": "as §1"}, "FAK": {"test_system": "FAK", "settings": "at 1 μM", "how_it_was_run": "as §1"}, "RET(V804M)": {"test_system": "RET(V804M)", "settings": "at 1 μM", "how_it_was_run": "as §1"}, "EPHA2": {"test_system": "EPHA2", "settings": "at 1 μM", "how_it_was_run": "as §2"}, "KIT-autoinhibited": {"test_system": "KIT-autoinhibited", "settings": "at 1 μM", "how_it_was_run": "as §1"}, "MUSK": {"test_system": "MUSK", "settings": "at 1 μM", "how_it_was_run": "as §1"}, "KIT(V559D)": {"test_system": "KIT(V559D)", "settings": "at 1 μM", "how_it_was_run": "as §1"}, "KIT": {"test_system": "KIT", "settings": "at 1 μM", "how_it_was_run": "as §1"}, "FLT1": {"test_system": "FLT1", "settings": "at 1 μM", "how_it_was_run": "as §1"}, "ABL2": {"test_system": "ABL2", "settings": "at 1 μM", "how_it_was_run": "as §1"}, "RET(M918T)": {"test_system": "RET(M918T)", "settings": "at 1 μM", "how_it_was_run": "as §1"}, "ZAP70": {"test_system": "ZAP70", "settings": "at 1 μM", "how_it_was_run": "as §1"}, "TNK2": {"test_system": "TNK2", "settings": "at 1 μM", "how_it_was_run": "as §1"}, "KIT(D816V)": {"test_system": "KIT(D816V)", "settings": "at 1 μM", "how_it_was_run": "as §1"}}, "data": [{"molecule": "Cc1cc2c([nH]1)/C=C1\\C(=O)Nc3c(Cl)cc(cc31)-c1cn(C)nc1COC[C@@H](C)N(C)C2=O", "note": "[Cpd. 5, [3a(4)Z,10R]-20-chloro-6,9,10,15-tetramethyl-10,11,13,15-tetrahydro-2H-1,17-(ethanediylidene)pyrazolo[4,3-m]dipyrrolo[3,2-f:3′,4′-i][1,4]oxazacyclopentadecine-3,8(5H,9H)-dione]", "values": [{"measurement": "% Ctrl", "setting": "RET(V804L)", "value": 84, "unit": "%"}, {"measurement": "% Ctrl", "setting": "INSR", "value": 94, "unit": "%"}, {"measurement": "% Ctrl", "setting": "RET", "value": 95, "unit": "%"}, {"measurement": "% Ctrl", "setting": "KIT(D816H)", "value": 77, "unit": "%"}, {"measurement": "% Ctrl", "setting": "ALK", "value": 71, "unit": "%"}, {"measurement": "% Ctrl", "setting": "EPHA5", "value": 97, "unit": "%"}, {"measurement": "% Ctrl", "setting": "PDGFRA", "value": 95, "unit": "%"}, {"measurement": "% Ctrl", "setting": "[1]", "value": 94, "unit": "%"}, {"measurement": "% Ctrl", "setting": "[2]", "value": 90, "unit": "%"}, {"measurement": "% Ctrl", "setting": "ALK(L1196M)", "value": 86, "unit": "%"}, {"measurement": "% Ctrl", "setting": "KIT(L576P)", "value": 97, "unit": "%"}, {"measurement": "% Ctrl", "setting": "CSF1R", "value": 96, "unit": "%"}, {"measurement": "% Ctrl", "setting": "KIT(V559D, T670I)", "value": 95, "unit": "%"}, {"measurement": "% Ctrl", "setting": "[3]", "value": 100, "unit": "%"}, {"measurement": "% Ctrl", "setting": "[4]", "value": 80, "unit": "%"}, {"measurement": "% Ctrl", "setting": "[5]", "value": 79, "unit": "%"}, {"measurement": "% Ctrl", "setting": "TRKA", "value": 53, "unit": "%"}, {"measurement": "% Ctrl", "setting": "FLT3(D835H)", "value": 79, "unit": "%"}, {"measurement": "% Ctrl", "setting": "PDGFRB", "value": 100, "unit": "%"}, {"measurement": "% Ctrl", "setting": "PYK2", "value": 83, "unit": "%"}, {"measurement": "% Ctrl", "setting": "[6]; JAK3(JH1domain-catalytic), at 1 μM", "value": 79, "unit": "%"}, {"measurement": "Kd", "setting": "[6]; read-out: JAK3(JH1 domain-catalytic) Kd", "value": "> 10", "unit": "µM"}, {"measurement": "% Ctrl", "setting": "EPHB3", "value": 89, "unit": "%"}, {"measurement": "% Ctrl", "setting": "CSK", "value": 96, "unit": "%"}, {"measurement": "% Ctrl", "setting": "EPHB1", "value": 92, "unit": "%"}, {"measurement": "% Ctrl", "setting": "TNK1", "value": 91, "unit": "%"}, {"measurement": "% Ctrl", "setting": "EPHA3", "value": 79, "unit": "%"}, {"measurement": "% Ctrl", "setting": "ERBB3", "value": 71, "unit": "%"}, {"measurement": "% Ctrl", "setting": "FYN", "value": 77, "unit": "%"}, {"measurement": "% Ctrl", "setting": "FAK", "value": 96, "unit": "%"}, {"measurement": "% Ctrl", "setting": "RET(V804M)", "value": 90, "unit": "%"}, {"measurement": "% Ctrl", "setting": "EPHA2", "value": 100, "unit": "%"}, {"measurement": "% Ctrl", "setting": "KIT-autoinhibited", "value": 83, "unit": "%"}, {"measurement": "% Ctrl", "setting": "MUSK", "value": 100, "unit": "%"}, {"measurement": "% Ctrl", "setting": "KIT(V559D)", "value": 96, "unit": "%"}, {"measurement": "% Ctrl", "setting": "KIT", "value": 98, "unit": "%"}, {"measurement": "% Ctrl", "setting": "FLT1", "value": 93, "unit": "%"}, {"measurement": "% Ctrl", "setting": "ABL2", "value": 96, "unit": "%"}, {"measurement": "% Ctrl", "setting": "RET(M918T)", "value": 87, "unit": "%"}, {"measurement": "% Ctrl", "setting": "ZAP70", "value": 63, "unit": "%"}, {"measurement": "% Ctrl", "setting": "TNK2", "value": 87, "unit": "%"}, {"measurement": "% Ctrl", "setting": "KIT(D816V)", "value": 100, "unit": "%"}]}]}
